Results taken from patent publication US20080234262A1 (Wyeth, priority 2007, published 2008).

Target: PI3K (Homo sapiens, UniProt P42336)
Assay: Fluorescence polarization assay for PI3K;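 note: PI3K kinase reaction on PIP2 with ATP, 30-60 min, product sensed by GST-GRP with red probe in fluorescence polarization (mP), controls without enzyme and at zero time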
Type: biochemical
Conditions: PI3Kα; read-out: PI3Kα IC50

PI3K, sequence (P42336 whole entry): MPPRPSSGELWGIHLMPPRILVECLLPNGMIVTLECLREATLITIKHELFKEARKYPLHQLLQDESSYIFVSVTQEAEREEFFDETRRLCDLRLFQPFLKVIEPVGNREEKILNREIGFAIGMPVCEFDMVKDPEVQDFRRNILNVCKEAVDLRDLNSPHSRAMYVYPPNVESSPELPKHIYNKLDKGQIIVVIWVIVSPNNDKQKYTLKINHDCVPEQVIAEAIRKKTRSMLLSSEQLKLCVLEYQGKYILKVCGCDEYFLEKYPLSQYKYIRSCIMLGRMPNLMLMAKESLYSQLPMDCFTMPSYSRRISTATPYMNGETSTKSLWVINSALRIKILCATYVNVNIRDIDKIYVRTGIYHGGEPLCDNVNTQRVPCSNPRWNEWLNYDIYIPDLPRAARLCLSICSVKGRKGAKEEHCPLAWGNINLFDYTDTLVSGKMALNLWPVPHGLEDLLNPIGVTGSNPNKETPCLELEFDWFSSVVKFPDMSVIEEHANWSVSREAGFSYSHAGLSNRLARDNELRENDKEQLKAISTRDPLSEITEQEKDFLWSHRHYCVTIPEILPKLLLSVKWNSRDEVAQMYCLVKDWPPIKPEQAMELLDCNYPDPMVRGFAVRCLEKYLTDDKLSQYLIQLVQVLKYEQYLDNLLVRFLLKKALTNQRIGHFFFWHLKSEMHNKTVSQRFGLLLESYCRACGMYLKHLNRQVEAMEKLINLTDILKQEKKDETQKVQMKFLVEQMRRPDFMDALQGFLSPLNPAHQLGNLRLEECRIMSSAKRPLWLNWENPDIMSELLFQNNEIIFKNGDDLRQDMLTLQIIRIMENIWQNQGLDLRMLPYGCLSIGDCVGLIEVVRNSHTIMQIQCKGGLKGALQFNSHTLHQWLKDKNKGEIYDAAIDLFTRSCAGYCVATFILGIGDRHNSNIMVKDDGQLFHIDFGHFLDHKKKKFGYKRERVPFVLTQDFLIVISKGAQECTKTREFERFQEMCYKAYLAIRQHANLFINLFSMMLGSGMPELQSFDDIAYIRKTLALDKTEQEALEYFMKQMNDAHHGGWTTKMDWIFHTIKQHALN
PI3K, sequence (P27986 whole entry partner): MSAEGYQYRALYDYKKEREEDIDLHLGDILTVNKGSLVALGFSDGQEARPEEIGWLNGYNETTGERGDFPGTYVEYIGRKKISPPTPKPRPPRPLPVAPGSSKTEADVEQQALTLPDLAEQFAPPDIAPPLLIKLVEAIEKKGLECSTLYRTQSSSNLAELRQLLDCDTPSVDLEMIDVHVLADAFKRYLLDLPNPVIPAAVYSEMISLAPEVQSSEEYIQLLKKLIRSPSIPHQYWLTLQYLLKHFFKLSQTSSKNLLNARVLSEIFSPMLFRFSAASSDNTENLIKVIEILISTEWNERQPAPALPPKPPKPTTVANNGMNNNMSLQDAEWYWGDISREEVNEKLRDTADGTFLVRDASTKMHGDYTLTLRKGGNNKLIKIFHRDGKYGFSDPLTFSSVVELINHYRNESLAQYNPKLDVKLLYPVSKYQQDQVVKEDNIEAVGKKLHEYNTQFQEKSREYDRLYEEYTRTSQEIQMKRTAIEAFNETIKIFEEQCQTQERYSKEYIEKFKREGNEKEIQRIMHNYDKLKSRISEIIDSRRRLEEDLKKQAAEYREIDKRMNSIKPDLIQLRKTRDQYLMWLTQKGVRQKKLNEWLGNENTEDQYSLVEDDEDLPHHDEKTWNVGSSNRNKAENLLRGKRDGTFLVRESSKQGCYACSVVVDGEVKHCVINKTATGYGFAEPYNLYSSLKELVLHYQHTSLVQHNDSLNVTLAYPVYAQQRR

SMILES | IC50
Nc1ccc(-c2nc(N3CCOCC3)c3cnn(C4CCCCO4)c3n2)cc1 (stereo not drawn) [Compound 264, 4-[4-morpholin-4-yl-1-(tetrahydro-2H-pyran-2-yl)-1H-pyrazolo[3,4-d]pyrimidin-6-yl]aniline] | 119 nM
Nc1cccc(-c2nc(N3CCOCC3)c3cnn(C4CCN(C(=O)c5cccnc5)CC4)c3n2)n1 [Compound 680, 6-{4-morpholin-4-yl-1-[1-(pyridin-3-ylcarbonyl)piperidin-4-yl]-1H-pyrazolo[3,4-d]pyrimidin-6-yl}pyridin-2-amine] | 4990 nM
O=C(Nc1ccc(-c2nc(N3CCOCC3)c3cnn(C4CCN(Cc5ccccc5)CC4)c3n2)cc1)C(F)(F)F [Compound 299, N-{4-[1-(1-benzylpiperidin-4-yl)-4-morpholin-4-yl-1H-pyrazolo[3,4-d]pyrimidin-6-yl]phenyl}-2,2,2-trifluoroacetamide] | 1900 nM
Oc1cccc(-c2nc(N3CCSCC3)c3cnn(-c4ccccc4)c3n2)c1 [Compound 963, 3-(1-phenyl-4-thiomorpholin-4-yl-1H-pyrazolo[3,4-d]pyrimidin-6-yl)phenol] | 1620 nM
CNC(=S)Nc1ccc(-c2nc(N3CCOCC3)c3cnn(C4CCN(Cc5ccccc5)CC4)c3n2)cc1 [Example 325, 1-{4-[1-(1-benzylpiperidin-4-yl)-4-morpholin-4-yl-1H-pyrazolo[3,4-d]pyrimidin-6-yl]phenyl}-3-methylthiourea] | 71 nM
CNC(=O)Nc1ccc(-c2nc(N3CCOCC3)c3cn[nH]c3n2)cc1 [Compound 927, 1-methyl-3-[4-(4-morpholin-4-yl-1H-pyrazolo[3,4-d]pyrimidin-6-yl)phenyl]urea] | 104 nM
CC(=O)Nc1ccc(-c2nc(N3CCOCC3)c3cnn(C4CCN(C(=O)c5cccnc5)CC4)c3n2)cc1 [Example 221, N-(4-{4-morpholin-4-yl-1-[1-(pyridin-3-ylcarbonyl)piperidin-4-yl]-1H-pyrazolo[3,4-d]pyrimidin-6-yl}phenyl)acetamide] | 878 nM
CCCOC(=O)Nc1ccc(-c2nc(N3CCOCC3)c3cnn(C4CCN(Cc5ccccc5)CC4)c3n2)cc1 [Compound 255, propyl {4-[1-(1-benzylpiperidin-4-yl)-4-morpholin-4-yl-1H-pyrazolo[3,4-d]pyrimidin-6-yl]phenyl}carbamate] | 4110 nM
CNC(=NC#N)Nc1ccc(-c2nc(N3CCOCC3)c3cnn(C4CCN(Cc5cccnc5)CC4)c3n2)cc1 [Compound 651, 2-cyano-1-methyl-3-(4-{4-morpholin-4-yl-1-[1-(pyridin-3-ylmethyl)piperidin-4-yl]-1H-pyrazolo[3,4-d]pyrimidin-6-yl}phenyl)guanidine] | 774 nM
CNC(=O)Nc1ccc(-c2nc(N3CCOCC3)c3cnn(C4CCN(Cc5ccc(OC)c(O)c5)CC4)c3n2)cc1 [Compound 643, 1-(4-{1-[1-(3-hydroxy-4-methoxybenzyl)piperidin-4-yl]-4-morpholin-4-yl-1H-pyrazolo[3,4-d]pyrimidin-6-yl}phenyl)-3-methylurea] | 57 nM
CCNC(=O)Nc1ccc(-c2nc(N3CCOCC3)c3cnn(C4CCN(C(=O)c5cccnc5)CC4)c3n2)c(F)c1 [Compound 706, 1-ethyl-3-(3-fluoro-4-{4-morpholin-4-yl-1-[1-(pyridin-3-ylcarbonyl)piperidin-4-yl]-1H-pyrazolo[3,4-d]pyrimidin-6-yl}phenyl)urea] | 1620 nM
COC(=O)Nc1ccc(-c2nc(N3CCOCC3)c3cnn(C4CCN(CC(N)=O)CC4)c3n2)cc1 [Compound 700, methyl (4-{1-[1-(2-amino-2-oxoethyl)piperidin-4-yl]-4-morpholin-4-yl-1H-pyrazolo[3,4-d]pyrimidin-6-yl}phenyl)carbamate] | 1430 nM
COc1cccc(C(=O)Nc2ccc(-c3nc(N4CCOCC4)c4cn[nH]c4n3)cc2)c1 [Compound 277, 3-methoxy-N-[4-(4-morpholin-4-yl-1H-pyrazolo[3,4-d]pyrimidin-6-yl)phenyl]benzamide] | 440 nM
N#CNC(=O)Nc1ccc(-c2nc(N3CCOCC3)c3cnn(C4CCN(Cc5cccnc5)CC4)c3n2)cc1 [Compound 653, N′-cyano-N-(4-{4-morpholin-4-yl-1-[1-(pyridin-3-ylmethyl)piperidin-4-yl]-1H-pyrazolo[3,4-d]pyrimidin-6-yl}phenyl)carbamimidic acid] | 363 nM
CNC(=O)Nc1ccc(-c2nc(N3CCOCC3)c3cn[nH]c3n2)cc1 [Example 236, 1-methyl-3-[4-(4-morpholin-4-yl-1H-pyrazolo[3,4-d]pyrimidin-6-yl)phenyl]urea] | 105 nM
COC(=O)Nc1ccc(-c2nc(N3CCOCC3)c3cnn(C4CCN(C(=O)c5ccccc5)CC4)c3n2)cc1 [Compound 686, methyl {4-[1-(1-benzoylpiperidin-4-yl)-4-morpholin-4-yl-1H-pyrazolo[3,4-d]pyrimidin-6-yl]phenyl}carbamate] | 1010 nM
COC(=O)Nc1ccc(-c2nc(N3CCOCC3)c3cnn(C4CCN(CC(=O)c5ccccc5)CC4)c3n2)cc1 [Compound 701, methyl (4-{4-morpholin-4-yl-1-[1-(2-oxo-2-phenylethyl)piperidin-4-yl]-1H-pyrazolo[3,4-d]pyrimidin-6-yl}phenyl)carbamate] | 585 nM
COC(=O)Nc1ccc(-c2nc(N3CCOCC3)c3cnn(C4CCN(C(=O)c5cccnc5)CC4)c3n2)cc1 [Example 223, methyl (4-{4-morpholin-4-yl-1-[1-(pyridin-3-ylcarbonyl)piperidin-4-yl]-1H-pyrazolo[3,4-d]pyrimidin-6-yl}phenyl)carbamate] | 514 nM
CNC(=O)Nc1cc(F)c(-c2nc(N3CCOCC3)c3cnn(C4CCN(C(=O)c5cccnc5)CC4)c3n2)cc1F [Example 465, 1-(2,5-difluoro-4-{4-morpholin-4-yl-1-[1-(pyridin-3-ylcarbonyl)piperidin-4-yl]-1H-pyrazolo[3,4-d]pyrimidin-6-yl}phenyl)-3-methylurea] | 1540 nM
CNC(=O)Nc1ccc(-c2nc(N3CCOCC3)c3cnn(C4CCN(C(=O)c5ccncc5)CC4)c3n2)cc1 [Example 417, 1-{4-[1-(1-isonicotinoylpiperidin-4-yl)-4-morpholin-4-yl-1H-pyrazolo[3,4-d]pyrimidin-6-yl]phenyl}-3-methylurea] | 160 nM
CNCCNC(=O)Nc1ccc(-c2nc(N3CCOCC3)c3cnn(C4CCN(C(=O)c5ccccc5)CC4)c3n2)cc1 [Compound 631, 1-{4-[1-(1-benzoylpiperidin-4-yl)-4-morpholin-4-yl-1H-pyrazolo[3,4-d]pyrimidin-6-yl]phenyl}-3-[2-(methylamino)ethyl]urea] | 48 nM
CC(=O)Nc1ccc(-c2nc(N3CCOCC3)c3cnn(C4CCCCO4)c3n2)cc1 (stereo not drawn) [Compound 925, N-{4-[4-morpholin-4-yl-1-(tetrahydro-2H-pyran-2-yl)-1H-pyrazolo[3,4-d]pyrimidin-6-yl]phenyl}acetamide] | 1650 nM
NCCC(=O)Nc1ccc(-c2nc(N3CCOCC3)c3cn[nH]c3n2)cc1 [Compound 529, N-[4-(4-morpholin-4-yl-1H-pyrazolo[3,4-d]pyrimidin-6-yl)phenyl]-b-alaninamide] | 202 nM
CNC(=O)Nc1ccc(-c2nc(N3CCOCC3)c3cnn(C4CCN(C(=O)c5ccc[n+]([O-])c5)CC4)c3n2)cc1 [Example 328, 1-methyl-3-[4-(4-morpholin-4-yl-1-{1-[(1-oxidopyridin-3-yl)carbonyl]piperidin-4-yl}-1H-pyrazolo[3,4-d]pyrimidin-6-yl)phenyl]urea] | 198 nM
